Data reported in patent US7402579B2, “Quinobenzoxazine analogs and compositions” (Cylene Pharmaceuticals, Inc., priority 2005, dated 2008).
Where two headings read alike, the source gives them in different places.

Experiments:
[1] = molecular target: c-Myc template DNA (quadruplex); test: Quadruplex binding assay (STOP assay, Taq polymerase arrest, capillary electrophoresis); assay type: biochemical; conditions: concentration at which 50% of the DNA was arrested
Procedure: Generally, a 5′-fluorescent-labeled (FAM) primer (P45, 15 nM) was mixed with template DNA (15 nM) in a Tris-HCL buffer (15 mM Tris, pH 7.5) containing 10 mM MgCl2, 0.1 mM EDTA and 0.1 mM mixed deoxynucleotide triphosphates (dNTP's). In one example, the FAM-P45 primer (5′-6FAM-[…] CAATT-3′) (SEQ ID NO. 17) and the c-Myc template DNA (5′-[…] […] […]-3′) (SEQ ID NO. 18) were synthesized and HPLC purified by Applied Biosystems. The mixture was denatured at 95° C. for 5 minutes and, after cooling down to room temperature, was incubated at 37° C. for 15 minutes.
After cooling down to room temperature, 1 mM […] and the test compound (various concentrations) were added and the mixture incubated for 15 minutes at room temperature. The primer extension was performed by adding 10 mM KCl and Taq DNA Polymerase (2.5 U/reaction, Promega) and incubating at 70° C. for 30 minutes. The reaction was stopped by adding 1 μl of the reaction mixture to 10 μl Hi-Di Formamide mixed and 0.25 μl LIZ120 size standard. Hi-Di Formamide and LIZ120 size standard were purchased from Applied Biosystems. The partially extended quadruplex arrest product was between 61 or 62 bases long and the full-length extended product was 99 bases long. The products were separated and analyzed using capillary electrophoresis. Capillary electrophoresis was performed using an ABI PRISM 3100-Avant Genetic Analyzer. The assay was performed using compounds described above, and μM concentrations reported in Table 1 (Tables 1A-1F) are concentrations at which 50% of the DNA was arrested in the assay (i.e., the ratio of shorter partially extended DNA (arrested DNA) to full-length extended DNA is 1:1).
Stop Assays. Stop assays are high throughput, first-pass screens for detecting drugs that bind to and stabilize the target G-quadruplex. Generally, DNA template oligonucleotide is created, which contains the nucleotide sequence of the “target” quadruplex against which drug screening is desired. A fluorescently labeled primer DNA is then annealed to the 3′ end of the template DNA. A DNA polymerase such as Taq polymerase is then introduced to synthesize a complementary strand of DNA by extending from the fluorescently labeled primer. When the progress of the Taq polymerase is unhindered, it synthesizes a full-length copy of the template. […] If, however, the test drug selectively binds to and stabilizes the quadruplex, the progress of polymerase arrests only at the quadruplex, and a characteristic “Stop Product” is synthesized.
These products are visualized by capillary electrophoresis.

HeLa cells = test: MTS cell proliferation/cytotoxicity assay, Hela; assay type: cell-based; conditions: Homo sapiens
Procedure: (§1) The antiproliferative effects of the present compounds may be tested using a cell proliferation and/or cytotoxicity assay, following protocols described below.
Cell culture. Human cervical epithelial cells (HeLa cells) are obtained from American Type Culture Collection (Manassas, Va.). Cells are grown in Eagle's minimum essential medium (MEM, Hyclone, Utah) supplemented with 2 mM Glutamine, 0.1 mM nonessential amino acid, 1 mM Na Pyruvate, 1.5 g/L NaHCO3, 50 mg/L gentamicin, and 10% fetal bovine serum (Hyclone, USA) in a humidified atmosphere of 5% CO2 at 37° C.
(§2) MTS assays. Antiproliferative effects of anticancer drugs are tested by the CellTiter 96 AQueous assay (Promega, Wis.), which is a colorimetric assay for determining the number of viable cells. (See, e.g., Wang, L., et al., Methods Cell Sci (1996) 18:249-255).
(§3) Generally, cells (2,000 to 5,000 cells/well) are seeded on 96 well flat bottom plates (Corning, N.Y.) in 100 μl of culture medium without any anticancer drug on day 0, and the culture medium is exchanged for that contained anticancer drugs at various concentrations on day 1. After incubation for 3 days under normal growth conditions (on day 4), the monolayers are washed once in PBS, and the medium is switched to 100 μl of PBS in each of the 96 well plate. After mixing MTS and PMS at the ratio of 20:1, 20 μl of MTS/PMS solution is added to each of the 96 well plate and incubated for 4 hours in a humidified atmosphere of 5% CO2 at 37° C. The absorbance was read at 490 nm using FLUOstar Galaxy 96 well plate reader (BMG Labtechnologies, Germany).

HCT-116 cells = test: MTS cell proliferation/cytotoxicity assay, HCT-116; assay type: cell-based; conditions: Homo sapiens
Procedure: as §1, §2, §3

| Compound | IC50 (HeLa cells; Table 1B) [µM] | IC50 (HCT-116 cells; Table 1B) [µM] | IC50 ([1]; Table 1B, read-out: STOP IC50) [µM] | IC50 (HeLa cells; Table 1A) [µM] | IC50 (HCT-116 cells; Table 1A) [µM] | other results |
| --- | --- | --- | --- | --- | --- | --- |
| CN1CCCC1CCNC(=O)c1cn2c3c(c(N4CCC(c5cnccn5)C4)c(F)cc3c1=O)Oc1ccccc1-2 (stereo not drawn) [Example 81] | – | – | – | – | – | IC50 ([1]; Table 1E, read-out: STOP Data): 5.7 µM |
| CN1CCCC1CCNC(=O)c1cn2c3c(cc(SCc4ccccc4)cc3c1=O)Oc1cc3ccccc3cc1-2 (stereo not drawn) | 5.2 | 3.9 | 14 | – | – | – |
| O=C(NCCN1CCCC1)c1cn2c3c(cc(SCCc4cnccn4)cc3c1=O)Oc1cc3ccccc3cc1-2 | 0.28 | 2.8 | 3.9 | – | – | – |
| CN1CCCC1CCNC(=O)c1cn2c3c(cc(SCCc4cnccn4)cc3c1=O)Oc1ccccc1-2 (stereo not drawn) | 3 | 3.8 | 10 | – | – | – |
| CC(=O)N1CCN(c2cc3c(=O)c(C(=O)NCCN4CCCC4)cn4c3c(c2F)Oc2cc(Cl)ccc2-4)CC1 | – | – | – | – | – | IC50 ([1]; Table 1C, read-out: STOP IC50): 6 µM |
| N#Cc1ccc2c(c1)-n1cc(C(=O)NCCN3CCCC3)c(=O)c3cc(F)c(N4CCC(c5cnccn5)C4)c(c31)O2 (stereo not drawn) | – | – | – | 0.21 | 0.031 | IC50 ([1]; Table 1A, read-out: STOP IC50): 5 µM |
| CC(C)N1CCN(c2c(F)cc3c(=O)c(C(=O)NCCN4CCCC4)cn4c3c2Oc2ccc(C#N)cc2-4)CC1 | – | – | – | 0.04 | 0.03 | IC50 ([1]; Table 1A, read-out: STOP IC50): 10 µM |
| CC1CCN(C(=O)c2cn3c4c(c(NCCN5CCOCC5)c(F)cc4c2=O)Oc2ccccc2-3)CC1 [Example 55] | – | – | – | – | – | IC50 ([1]; Table 1E, read-out: STOP Data): > 15 µM |
| CN1CCCC1CCNC(=O)c1cn2c3c(cc(SCc4ccccn4)cc3c1=O)Oc1cc3ccccc3cc1-2 (stereo not drawn) | 2.5 | 3.1 | 3.8 | – | – | – |
| CN1CCCC1CCNC(=O)c1cn2c3c(cc(SCCc4cnccn4)cc3c1=O)Oc1cc3ccccc3cc1-2 (stereo not drawn) | 1.8 | 10 | 3.4 | – | – | – |
| CN1CCCC1CCNC(=O)c1cn2c3c(cc(SCc4ccncc4)cc3c1=O)Oc1cc3ccccc3cc1-2 (stereo not drawn) | 4.1 | 4.2 | 2.9 | – | – | – |
| CN1CCCC1CCNC(=O)c1cn2c3c(c(N4CCC(c5cnccn5)C4)c(F)cc3c1=O)Oc1ccc(C#N)cc1-2 (stereo not drawn) | – | – | – | 1.2 | 0.4 | – |
| CN1CCCC1CCNC(=O)c1cn2c3c(c(N4CCC(c5cnccn5)C4)c(F)cc3c1=O)Oc1ccc(C(N)=O)cc1-2 (stereo not drawn) | – | – | – | 11 | 3.6 | – |
| N#Cc1ccc2c(c1)-n1cc(C(=O)NCCN3CCOCC3)c(=O)c3cc(F)c(N4CCC(N)C4)c(c31)O2 (stereo not drawn) | – | – | – | 0.68 | 0.4 | – |
| Cc1cc(CSc2cc3c4c(c2)c(=O)c(C(=O)NCCC2CCCN2C)cn4-c2cc4ccccc4cc2O3)no1 (stereo not drawn) | 2.3 | 2.9 | 5.4 | – | – | – |
